Reference: patent publication US20240025908A1, “COMPOUND USED AS KINASE INHIBITOR AND USE THEREOF” (TYK MEDICINES, INC., priority 2020, published 2024)

Columns and labels:
TRKA (G677C) = TRKA (G677C) (Homo sapiens, UniProt P04629, G667C); assay: Radio-tagged HotSpot kinase assay, TRKA (G677C); format: biochemical; conditions: read-out: TRKA (G677C) (IC50/nM)
Method: (§1) Inhibition of protein kinase activity by compounds was carried out on the Radio-tagged HotSpot kinase experimental platform of Reaction Biology Corporation. Fresh reaction solution (20 mM TIEPESpH 7.5, 10 mM MgCl2, 1 mM EGTA, 0.02% Brij35, 0.02 mg/ml BSA, 0.1 mM Na3VO4, 2 mM DTT, […]) containing corresponding substrates was prepared, cofactor and kinase to be tested were added into the above solution and mixed gently. Echo550 pipetting system was used to add the test compound DMSO solution to each well (the blank control group was added with the corresponding volume of DMSO), then 33P-ATP (with a final specific activity of 0.01 μCi/μL) was added to start the reaction. The reaction solution was incubated at room temperature for 120 minutes. Transferred the incubated reaction solution to P81 ion exchange chromatographic paper (Whatman #3698-915), eluted with […] phosphoric acid solution, and the amount of radioactive phosphorylated substrate remaining on the chromatographic paper was detected.

ROS1 = ROS1 (Homo sapiens (Human), UniProt P08922); assay: Radio-tagged HotSpot kinase assay, ROS1; format: biochemical
ROS1, sequence (P08922 28-2347): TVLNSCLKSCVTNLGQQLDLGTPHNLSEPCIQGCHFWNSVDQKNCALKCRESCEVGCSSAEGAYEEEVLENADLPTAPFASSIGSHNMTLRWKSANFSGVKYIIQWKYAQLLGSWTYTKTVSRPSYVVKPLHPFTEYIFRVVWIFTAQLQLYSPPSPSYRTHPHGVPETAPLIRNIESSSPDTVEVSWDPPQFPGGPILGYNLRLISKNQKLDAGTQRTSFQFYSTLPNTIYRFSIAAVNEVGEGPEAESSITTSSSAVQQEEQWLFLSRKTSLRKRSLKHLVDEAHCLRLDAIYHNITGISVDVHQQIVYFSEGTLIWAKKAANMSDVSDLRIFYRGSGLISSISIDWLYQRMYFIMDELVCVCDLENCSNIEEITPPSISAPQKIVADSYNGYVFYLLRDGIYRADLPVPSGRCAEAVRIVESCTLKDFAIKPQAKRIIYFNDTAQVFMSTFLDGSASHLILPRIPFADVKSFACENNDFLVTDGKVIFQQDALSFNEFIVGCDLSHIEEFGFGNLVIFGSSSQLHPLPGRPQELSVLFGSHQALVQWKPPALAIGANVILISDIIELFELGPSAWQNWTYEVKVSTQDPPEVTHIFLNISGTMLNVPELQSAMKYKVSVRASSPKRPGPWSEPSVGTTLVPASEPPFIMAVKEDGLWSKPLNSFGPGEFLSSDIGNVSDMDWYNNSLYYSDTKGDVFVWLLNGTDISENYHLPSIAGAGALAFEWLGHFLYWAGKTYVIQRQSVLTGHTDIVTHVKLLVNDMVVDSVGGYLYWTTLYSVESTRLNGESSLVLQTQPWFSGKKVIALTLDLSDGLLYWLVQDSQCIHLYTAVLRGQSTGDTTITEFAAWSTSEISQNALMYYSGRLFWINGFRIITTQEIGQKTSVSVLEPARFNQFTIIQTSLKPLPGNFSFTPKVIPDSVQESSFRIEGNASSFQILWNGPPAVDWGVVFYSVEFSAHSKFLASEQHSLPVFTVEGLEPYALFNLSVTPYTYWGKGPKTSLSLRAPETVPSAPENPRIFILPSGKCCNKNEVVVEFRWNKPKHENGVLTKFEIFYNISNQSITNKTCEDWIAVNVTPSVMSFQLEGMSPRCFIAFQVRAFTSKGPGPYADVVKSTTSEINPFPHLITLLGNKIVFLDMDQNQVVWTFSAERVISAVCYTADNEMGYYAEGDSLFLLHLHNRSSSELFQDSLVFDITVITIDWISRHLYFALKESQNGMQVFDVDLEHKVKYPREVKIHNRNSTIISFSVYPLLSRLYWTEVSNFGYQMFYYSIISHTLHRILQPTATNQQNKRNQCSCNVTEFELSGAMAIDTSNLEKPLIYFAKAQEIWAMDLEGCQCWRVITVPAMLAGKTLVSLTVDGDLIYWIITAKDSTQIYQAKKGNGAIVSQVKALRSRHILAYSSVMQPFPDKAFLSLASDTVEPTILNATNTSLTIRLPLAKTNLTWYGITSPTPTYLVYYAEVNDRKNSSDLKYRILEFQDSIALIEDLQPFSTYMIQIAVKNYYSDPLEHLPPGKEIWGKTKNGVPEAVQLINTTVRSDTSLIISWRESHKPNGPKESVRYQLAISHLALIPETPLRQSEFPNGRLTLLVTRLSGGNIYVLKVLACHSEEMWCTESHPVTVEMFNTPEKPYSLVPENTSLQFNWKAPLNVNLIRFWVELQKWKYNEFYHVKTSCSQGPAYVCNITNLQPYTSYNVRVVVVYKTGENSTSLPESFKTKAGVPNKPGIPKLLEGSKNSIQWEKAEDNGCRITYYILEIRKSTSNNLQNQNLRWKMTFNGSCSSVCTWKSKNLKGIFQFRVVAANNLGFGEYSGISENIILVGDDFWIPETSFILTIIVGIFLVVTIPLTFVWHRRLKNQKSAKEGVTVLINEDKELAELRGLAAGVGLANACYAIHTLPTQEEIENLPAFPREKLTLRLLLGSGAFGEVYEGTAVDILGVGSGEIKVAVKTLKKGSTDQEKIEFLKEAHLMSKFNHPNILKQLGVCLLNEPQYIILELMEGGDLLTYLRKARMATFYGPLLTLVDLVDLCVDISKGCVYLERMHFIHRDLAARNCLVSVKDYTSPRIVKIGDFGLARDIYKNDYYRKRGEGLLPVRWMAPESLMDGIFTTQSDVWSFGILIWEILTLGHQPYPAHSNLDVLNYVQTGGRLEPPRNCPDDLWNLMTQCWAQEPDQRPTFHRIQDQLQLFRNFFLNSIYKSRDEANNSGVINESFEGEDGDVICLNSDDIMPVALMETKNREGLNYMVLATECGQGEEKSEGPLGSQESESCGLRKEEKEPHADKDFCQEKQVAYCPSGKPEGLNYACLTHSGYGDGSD
Method: as §1

ROS1 (G2032R) = ROS1 (G2032R) (Homo sapiens (Human), UniProt P08922, G2032R); assay: Radio-tagged HotSpot kinase assay, ROS1 (G2032R); format: biochemical
ROS1 (G2032R), sequence (P08922 28-2347 G2032R): as the sequence (P08922 28-2347) above, with G2005R counted along it
Method: as §1

ALK (G1202R) = ALK (G1202R) (Homo sapiens (Human), UniProt Q9UM73, G1202R); assay: Radio-tagged HotSpot kinase assay, ALK (G1202R); format: biochemical
ALK (G1202R), sequence (Q9UM73 19-1620 G1202R): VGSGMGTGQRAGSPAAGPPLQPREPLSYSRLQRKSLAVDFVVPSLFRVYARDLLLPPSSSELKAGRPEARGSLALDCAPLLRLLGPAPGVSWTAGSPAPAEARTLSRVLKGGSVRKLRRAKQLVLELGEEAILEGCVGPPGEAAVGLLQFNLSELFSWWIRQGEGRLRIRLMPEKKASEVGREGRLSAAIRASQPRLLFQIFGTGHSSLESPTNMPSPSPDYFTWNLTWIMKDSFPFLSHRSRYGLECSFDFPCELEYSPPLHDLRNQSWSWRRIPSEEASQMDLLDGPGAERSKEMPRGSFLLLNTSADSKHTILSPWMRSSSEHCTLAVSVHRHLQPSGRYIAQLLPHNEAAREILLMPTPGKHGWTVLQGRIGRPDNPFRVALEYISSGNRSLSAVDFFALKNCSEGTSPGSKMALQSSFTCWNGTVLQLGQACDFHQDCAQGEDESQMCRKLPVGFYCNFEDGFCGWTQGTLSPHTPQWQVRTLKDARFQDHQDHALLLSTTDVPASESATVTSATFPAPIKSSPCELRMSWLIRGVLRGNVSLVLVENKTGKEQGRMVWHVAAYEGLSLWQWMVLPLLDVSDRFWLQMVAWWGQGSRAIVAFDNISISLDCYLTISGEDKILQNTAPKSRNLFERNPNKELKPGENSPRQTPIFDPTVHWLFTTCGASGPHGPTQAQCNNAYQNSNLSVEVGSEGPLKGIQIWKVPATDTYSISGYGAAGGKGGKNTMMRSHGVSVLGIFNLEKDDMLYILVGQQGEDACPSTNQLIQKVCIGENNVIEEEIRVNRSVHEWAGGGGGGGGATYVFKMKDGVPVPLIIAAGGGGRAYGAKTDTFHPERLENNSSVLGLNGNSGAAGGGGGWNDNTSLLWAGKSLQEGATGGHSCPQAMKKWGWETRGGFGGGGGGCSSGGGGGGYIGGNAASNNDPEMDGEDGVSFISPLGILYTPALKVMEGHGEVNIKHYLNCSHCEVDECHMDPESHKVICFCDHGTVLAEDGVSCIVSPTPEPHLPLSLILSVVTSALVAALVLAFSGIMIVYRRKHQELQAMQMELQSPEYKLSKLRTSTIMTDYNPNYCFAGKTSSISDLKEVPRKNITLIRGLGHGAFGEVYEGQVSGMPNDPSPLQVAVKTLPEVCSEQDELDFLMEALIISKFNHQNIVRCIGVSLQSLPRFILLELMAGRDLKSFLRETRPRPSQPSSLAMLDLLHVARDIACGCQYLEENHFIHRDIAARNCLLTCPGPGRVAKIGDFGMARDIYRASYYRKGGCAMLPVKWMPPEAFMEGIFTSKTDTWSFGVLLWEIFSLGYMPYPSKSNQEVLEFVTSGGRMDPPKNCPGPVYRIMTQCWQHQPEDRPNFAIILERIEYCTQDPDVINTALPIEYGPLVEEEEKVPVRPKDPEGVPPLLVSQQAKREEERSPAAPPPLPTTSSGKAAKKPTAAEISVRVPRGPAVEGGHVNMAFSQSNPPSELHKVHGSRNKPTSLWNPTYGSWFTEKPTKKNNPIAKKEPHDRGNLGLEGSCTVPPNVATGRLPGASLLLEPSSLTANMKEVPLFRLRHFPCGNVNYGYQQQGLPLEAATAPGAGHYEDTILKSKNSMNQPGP
Method: as §1

TRKA = TRKA (Homo sapiens (Human), UniProt P04629); assay: Radio-tagged HotSpot kinase assay, TRKA; format: biochemical
TRKA, sequence (P04629 33-796): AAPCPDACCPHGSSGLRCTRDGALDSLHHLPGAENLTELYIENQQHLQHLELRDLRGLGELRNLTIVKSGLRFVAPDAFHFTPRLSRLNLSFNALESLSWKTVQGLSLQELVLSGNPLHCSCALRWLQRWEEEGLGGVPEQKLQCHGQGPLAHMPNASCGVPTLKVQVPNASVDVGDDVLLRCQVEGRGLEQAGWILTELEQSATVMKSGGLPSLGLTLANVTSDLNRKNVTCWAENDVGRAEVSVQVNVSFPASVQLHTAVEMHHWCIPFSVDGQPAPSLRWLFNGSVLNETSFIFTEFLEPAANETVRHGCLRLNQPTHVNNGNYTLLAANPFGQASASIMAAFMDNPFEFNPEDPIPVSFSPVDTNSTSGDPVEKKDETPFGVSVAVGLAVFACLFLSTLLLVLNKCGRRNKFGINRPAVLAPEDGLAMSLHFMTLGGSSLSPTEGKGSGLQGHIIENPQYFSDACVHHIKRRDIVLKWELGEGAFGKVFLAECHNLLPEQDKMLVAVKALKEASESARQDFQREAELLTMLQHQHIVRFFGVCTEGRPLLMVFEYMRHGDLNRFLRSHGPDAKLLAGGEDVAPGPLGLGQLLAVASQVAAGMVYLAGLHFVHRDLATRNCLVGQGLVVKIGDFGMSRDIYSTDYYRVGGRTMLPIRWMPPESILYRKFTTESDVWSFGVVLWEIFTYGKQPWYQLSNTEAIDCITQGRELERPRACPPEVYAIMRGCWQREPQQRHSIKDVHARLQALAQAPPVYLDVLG
Method: as §1

ALK = ALK (Homo sapiens (Human), UniProt Q9UM73); assay: Radio-tagged HotSpot kinase assay, ALK; format: biochemical
ALK, sequence (Q9UM73 19-1620): as the sequence (Q9UM73 19-1620 G1202R) above, with R1184G counted along it
Method: as §1

[1] = tested on: Ba/F3-CD74-ROS1-G2032R cells; assay: In vivo efficacy study, subcutaneous Ba/F3-CD74-ROS1-G2032R tumor; set-up: species or system BALB/c nude mice; conditions: 20 mg/kg P.O. BID × 2 weeks
Method: Cell culture: Ba/F3-CD74-ROS1-G2032R cell line was cultured with 1640 medium (Biological Industries)+10% fetal bovine serum (BI)+1% double antibody (Penicillin Streptomycin solution, Corning, USA) at 37° C. with 5% CO2. Two passages were performed for one week. When the cell saturation was 80%-90% and the number reached the required level, the cells were collected, counted and inoculated.
Animals: BALB/c nude mice, female, 6-8 weeks of age, weighing 15-20 g. A total of 6 mice were required, provided by Beijing Vital River Laboratory Animal Technology Co., Ltd.
Tumor inoculation: 0.2 ml (2×10^6) Ba/F3-CD74-ROS1-G2032R cells (plus stromal gel, volume ratio 1:1) were inoculated subcutaneously on the right posterior dorsum of each mouse, and group dosing was started when the average tumor volume reached about 150-200 mm^3.
Experimental index: Tumor volume and body weight were measured twice a week. Tumor volume was measured by vernier calipers with the formula TV=0.5 a×b2, wherein a is the long diameter of the tumor and b is the short diameter of the tumor.

Ba/F3-CD74-ROS1-G2032R = assay: Inhibition of cell proliferation (CellTiter-Glo), Ba/F3-CD74-ROS1-G2032R; format: cell-based; conditions: 72 hours
Method: (§2) The experiment of inhibiting cell proliferation by compounds was carried out in Hefei Zhongkeprecedo Biomedical Technology Co., Ltd. The Ba/F3 engineered cell line stably transfected with different kinase genes was recovered with RPMI 1640 medium (Biological Industries, Israel)+10% fetal bovine serum (Biological Industries, Israel)+1% double antibody (Penicillin Streptomycin solution, Coring, USA) and cultivated two generations. The logarithmic growth phase cell suspension was taken, and 2000 cells/well were inoculated on 96-well white cell culture plate (Corning 3917, NY, USA) with a volume of 95 μL per well. 5 μL of 20×DMSO solution of the compound to be tested was added into the culture plate containing 95 μL of cell suspension. The blank control group was added with corresponding volume of DMSO, mixed well, and incubated in a 5% CO2 incubator at 37° C. for 72 hours. CellTiter-Glo was used to detect cell viability.

Ba/F3-LMNA-NTRK1-G595R = assay: Inhibition of cell proliferation (CellTiter-Glo), Ba/F3-LMNA-NTRK1-G595R; format: cell-based; conditions: 72 hours
Method: as §2

Ba/F3-TEL-ALK-G1202R = assay: Inhibition of cell proliferation (CellTiter-Glo), Ba/F3-TEL-ALK-G1202R; format: cell-based; conditions: 72 hours
Method: as §2

TRKA (G677C), sequence (P04629 33-796 G667C limits assumed): as the sequence (P04629 33-796) above, with G635C counted along it

Structure (SMILES) | IC50 (TRKA (G677C)) [nM] | IC50 (ROS1) [nM] | IC50 (ROS1 (G2032R)) [nM] | IC50 (ALK (G1202R)) [nM] | IC50 (TRKA) [nM] | IC50 (ALK) [nM] | IC50 (Ba/F3-CD74-ROS1-G2032R) [nM] | IC50 (Ba/F3-LMNA-NTRK1-G595R) [nM] | Tumor Volume ([1]; 0 days) [mm^3] | Tumor Volume ([1]; 4 days) [mm^3] | Tumor Volume ([1]; 7 days) [mm^3] | Tumor Volume ([1]; 11 days) [mm^3] | Tumor Volume ([1]; 14 days) [mm^3] | IC50 (Ba/F3-TEL-ALK-G1202R) [nM]
COc1ccc(F)cc1[C@@H](C)Nc1ccn2ncc(NC3=NC(C)(C)CO3)c2n1 [Example 1] | 0.5 to 5 | 0.5 to 5 | 0.5 to 5 | 5 to 50 | 0.5 to 5 | 0.5 to 5 |  |  |  |  |  |  |  | 
C[C@@H](Nc1ccn2ncc(NC3=NC(C)(C)CO3)c2n1)c1cc(F)cc(F)c1F [Example 2] | 0.5 to 5 | 0.5 to 5 | 0.5 to 5 | 5 to 50 | 0.5 to 5 | 0.5 to 5 |  |  |  |  |  |  |  | 
C[C@@H](Nc1ccn2ncc(C3=NOCCN3)c2n1)c1cc(F)cc(F)c1F [Example 3] | < 0.5 | < 0.5 | < 0.5 | 0.5 to 5 | < 0.5 | 0.5 to 5 |  |  |  |  |  |  |  | 
C[C@@H](Nc1ccn2ncc(C3=NOCC(C)(C)N3)c2n1)c1cc(F)cc(F)c1F [Example 4] | 0.5 to 5 | < 0.5 | 0.5 to 5 | 5 to 50 | < 0.5 | 0.5 to 5 |  |  | 167.31 | 216.42 | 292.24 | 375.67 | 688.91 | 
C[C@@H](Nc1ccn2ncc(C3=NN=CC(C)(C)N3)c2n1)c1cc(F)cc(F)c1F [Example 5] | 5 to 50 | 0.5 to 5 | 5 to 50 | 5 to 50 | 0.5 to 5 | 5 to 50 |  |  |  |  |  |  |  | 
C[C@@H](Nc1ccn2ncc(C3=NC(=O)C(C)(C)N3)c2n1)c1cc(F)ccc1OC(F)F [Example 6] | < 0.5 | < 0.5 | < 0.5 | 5 to 50 | < 0.5 | 0.5 to 5 | 24.1 | 13.4 |  |  |  |  |  | 110
COc1ccc(F)cc1[C@@H](C)Nc1ccn2ncc(C3=NC(=O)C(C)(C)N3)c2n1 [Example 7] | < 0.5 | < 0.5 | < 0.5 | 5 to 50 | < 0.5 | 0.5 to 5 | 54.6 | 36.1 |  |  |  |  |  | 

Continued, in another order:

IC50 (TRKA (G677C)) [nM] | IC50 (ROS1) [nM] | IC50 (ROS1 (G2032R)) [nM] | IC50 (ALK (G1202R)) [nM] | IC50 (TRKA) [nM] | IC50 (ALK) [nM] | IC50 (Ba/F3-CD74-ROS1-G2032R) [nM] | IC50 (Ba/F3-LMNA-NTRK1-G595R) [nM] | Structure (SMILES) | Tumor Volume ([1]; 0 days) [mm^3] | Tumor Volume ([1]; 4 days) [mm^3] | Tumor Volume ([1]; 7 days) [mm^3] | Tumor Volume ([1]; 11 days) [mm^3] | Tumor Volume ([1]; 14 days) [mm^3] | IC50 (Ba/F3-TEL-ALK-G1202R) [nM]
< 0.5 | < 0.5 | < 0.5 | 5 to 50 | < 0.5 | 0.5 to 5 |  |  | C[C@@H](Nc1ccn2ncc(C3=NC(=O)C(C)(C)N3)c2n1)c1cc(F)cc(F)c1F [Example 8] |  |  |  |  |  | 
< 0.5 | < 0.5 | < 0.5 | 5 to 50 | < 0.5 | 0.5 to 5 | 31.6 | 6.1 | C[C@@H](Nc1ccn2ncc(C3=NOCCN3)c2n1)c1cc(F)ccc1OC(F)F [Example 9] |  |  |  |  |  | 75.6
< 0.5 | < 0.5 | < 0.5 | 5 to 50 | < 0.5 | 0.5 to 5 |  |  | COc1ncc(F)cc1[C@@H](C)Nc1ccn2ncc(C3=NC(=O)C(C)(C)N3)c2n1 [Example 10] |  |  |  |  |  | 
5 to 50 | 0.5 to 5 | 5 to 50 | 50 to 500 | 0.5 to 5 | 50 to 500 |  |  | CCCOC(=O)/N=C(\N)c1cnn2ccc(N[C@H](C)c3cc(F)cc(F)c3F)nc12 [Example 11] |  |  |  |  |  | 
5 to 50 | 0.5 to 5 | 5 to 50 | 5 to 50 | 0.5 to 5 | 5 to 50 |  |  | COc1ccc(F)cc1[C@@H](C)Nc1ccn2ncc(NC3=NC(C)(C)CN3)c2n1 [Example 12] |  |  |  |  |  | 
50 to 500 | 5 to 50 | 50 to 500 | 50 to 500 | 5 to 50 | 50 to 500 |  |  | C[C@@H](Nc1ccn2ncc(C(=O)NOCCO)c2n1)c1cc(F)cc(F)c1F [Example 13] |  |  |  |  |  | 
